Usually inhibition stands for the drop in the measured response relative to a control, in per cent. The LD50 is the dose at which mortality reaches 50%. Low readings indicate greater toxicity, high ones lower toxicity.

Structures are written as SMILES. Like-named read-outs stand apart in the source and are kept apart here.

Data set [1] in a line: Hypotensive action, arterial blood pressure in anesthetized dogs. Type of data set: in vivo, Mongrel dogs. Conditions: cumulative, anesthetized dog. On the procedure: Mongrel dogs of both sexes weighing 9.7 - 19.0 kg were anesthetized with pentobarbital-Na (30 mg/kg, i.v.) and fixed on their back. Anesthesia was maintained by continuous intravenous infusion of pentobarbital-Na at a rate of 4 mg/kg/hour. After the vinyl catheter was inserted in the left femoral vein, heparin sodium, 1000 U/kg, was intravenously injected in order to prevent blood coagulation. Arterial blood pressure was measured from the left femoral artery with a pressure transducer (Nihon Kohden, RP-3). Test drugs were dissolved in 0.9% physiological saline solution and then intravenously administered with the cumulative method at intervals of 5 - 10 minutes.

A further data set relates to β-adrenergic nerves. Briefly: Antagonistic activity against isoproterenol (β-adrenergic nerves blocking activity), anesthetized dogs. In kind it is in vivo, Mongrel dogs. The conditions noted are these: Canis lupus familiaris, iv, isoproterenol 0.3 μg/kg, dog; for inhibition at 0.0001 mg/kg: 0.1 μg/kg i.v.; for inhibition at 0.001 mg/kg: 1.0 μg/kg i.v.; for inhibition at 0.01 mg/kg: 10 μg/kg i.v.; for inhibition at 0.1 mg/kg: 100 μg/kg i.v. As for the experimental part: For example, the antagonistic activity against isoproterenol (as an indication of β-adrenergic nerves blocking activity) of the 3,4-dihydrocarbostyril derivatives of the present invention was measured according to a method as described in R. D. Robson and H. R. Kaplan, "J. Pharmacol. Exp. Therap.," Vol. 175, page 157 (1970) as follows:
Mongrel dogs of both sexes weighing 9.7 - 19.0 kg were anesthetized with pentobarbital-Na (30 mg/kg, i.v.) and fixed on their back. Anesthesia was maintained by continuous intravenous infusion of pentobarbital-Na at a rate of 4 mg/kg/hour.
Arterial blood pressure was measured from the left femoral artery with a pressure transducer (Nihon Kohden, RP-3). The left femoral vein was cannulated for i.v. injection of drugs. Heart rate was measured with a tachometer (San-ei, type 2130) treggered by the R wave of ECG (Lead II). Blood pressure and heart rate were simultaneously recorded on an ink-writing recorder (San-ei, type 145).
Test drugs were cumulatively injected at intervals of 10 minutes after reproducibility test on the positive chronotropic and hypotensive actions of a submaximal dose of 0.3 μg/kg of isoproterenol. At the time when responses of blood pressure and heart rate to these test drugs were stabilized, at about 3 minutes after injection, isoproterenol 0.3 μg/kg was injected again. Their antagonistic activities were determined from difference between responses to isoproterenol before and after administration of the test drugs and expressed as % inhibition.

Another data set is described as follows: Acute toxicity (LD50). The conditions noted are these: in vivo.
The mark [2] stands for this setting: blood pressure, read-out: Antagonistic Activity against Isoproterenol (% Inhibition of changes in BP).
Setting [3] is: heart rate, read-out: Antagonistic Activity against Isoproterenol (% Inhibition of changes in HR).

As to `COc1ccc(OCC(O)CNC(C)(C)C)c2c1NC(=O)CC2` (centres unmarked) [drawing 16], the “Hypotensive Action (Blood Pressure mmHg)” value is 0.0 mmHg in data set [1] (0.1 μg/kg i.v.), -2.0 mmHg in data set [1] (1.0 μg/kg i.v.), -3.5 mmHg in data set [1] (10 μg/kg i.v.) and -5.5 mmHg in data set [1] (100 μg/kg i.v.).
With `CC(C)(C)NCC(O)COc1ccc(OCc2ccccc2)c2c1CCC(=O)N2` (centres unmarked) [drawing 14], in the data set with β-adrenergic nerves (setting [2]), the inhibition at 0.0001 mg/kg was 20%, the inhibition at 0.001 mg/kg was found to be 10.9%, the inhibition at 0.01 mg/kg turned out to be 12.6% and the inhibition at 0.1 mg/kg amounted to 8.4%. For the same compound, in the data set on β-adrenergic nerves (setting [3]), the inhibition at 0.0001 mg/kg was found to be 13.5%, the inhibition at 0.001 mg/kg came to 13.5%, the inhibition at 0.01 mg/kg is 21.4% and the inhibition at 0.1 mg/kg amounted to 65.4%.
With `CC(C)(C)NCC(O)COc1ccc(O)c2c1CCC(=O)N2` (centres unmarked) [drawing 18], the median lethal dose (LD50) came to 94 mg/kg in the data set “Acute toxicity (LD50)” (iv) and 1380 mg/kg in the data set “Acute toxicity (LD50)” (po).
In the same order, the values of `CC(C)(C)NCC(O)COc1ccc(OCc2ccccc2)c2c1CCC(=O)N2` (centres unmarked) [drawing 20] are 80 mg/kg and 1150 mg/kg.
Regarding `CC(C)(C)NCC(O)COc1ccc(O)c2c1CCC(=O)N2` (centres unmarked) [drawing 12], in the data set on β-adrenergic nerves (setting [2]), the inhibition at 0.0001 mg/kg worked out at 18.4%, the inhibition at 0.001 mg/kg was 64.6%, the inhibition at 0.01 mg/kg amounted to 94.8% and the inhibition at 0.1 mg/kg came to 100%. Moreover, in the data set with β-adrenergic nerves (setting [3]), the inhibition at 0.0001 mg/kg stood at 5.1%, the inhibition at 0.001 mg/kg was 44.5%, the inhibition at 0.01 mg/kg turned out to be 97.5% and the inhibition at 0.1 mg/kg was found to be 100%.
With `COc1ccc(OCC(O)CNC(C)(C)C)c2c1NC(=O)CC2` (centres unmarked) [drawing 19], the median lethal dose (LD50) in “Acute toxicity (LD50)” (iv) worked out at 83 mg/kg; in the data set “Acute toxicity (LD50)” (po) it was 1210 mg/kg.
Turning to `CC(C)(C)NCC(O)COc1ccc(O)c2c1CCC(=O)N2` (centres unmarked) [drawing 15], the “Hypotensive Action (Blood Pressure mmHg)” value in data set [1] (0.1 μg/kg i.v.) is -1.6 mmHg; in data set [1] (1.0 μg/kg i.v.), -5.4 mmHg; in data set [1] (10 μg/kg i.v.) it was -11.8 mmHg; in data set [1] (100 μg/kg i.v.) it was -30.6 mmHg.
For `COc1ccc(OCC(O)CNC(C)(C)C)c2c1NC(=O)CC2` (centres unmarked) [drawing 13], in the data set with β-adrenergic nerves (setting [2]), the inhibition at 0.0001 mg/kg came out at 40.6%, the inhibition at 0.001 mg/kg turned out to be 54.4%, the inhibition at 0.01 mg/kg is 77.1% and the inhibition at 0.1 mg/kg is 82.2%. In addition, in the data set with β-adrenergic nerves (setting [3]), the inhibition at 0.0001 mg/kg amounted to 7%, the inhibition at 0.01 mg/kg stood at 39.8% and the inhibition at 0.1 mg/kg came to 80.5%.
In the case of `CC(C)(C)NCC(O)COc1ccc(OCc2ccccc2)c2c1CCC(=O)N2` (centres unmarked) [drawing 17], the “Hypotensive Action (Blood Pressure mmHg)” value in data set [1] (0.1 μg/kg i.v.) is listed as -1.0 mmHg; in data set [1] (1.0 μg/kg i.v.) it was -4.5 mmHg; in data set [1] (10 μg/kg i.v.), -10.5 mmHg; in data set [1] (100 μg/kg i.v.), -16.0 mmHg.
